Experimental data taken from patent US20030153611A1, “1,3-Diarylprop-2-en-1-ones, compositions containing them and use thereof” (AVENTIS PHARMA S.A., priority 2001, published 2003).
Where a name gives a salt, the structure may show the parent alone.

Legend:
HDMEC = test: Inhibition of cell proliferation, HDMEC; assay type: cell-based; conditions: Homo sapiens
Tubulin = biological target: T1, Tubulin (Sus scrofa, UniProt P02550+P02554); test: Assessment of the inhibition of tubulin polymerization (turbidimetry); assay type: biochemical, pig; conditions: tubulin 10 μM, turbidity at 350 nm, 37° C.
T1 construct: Tubulin is purified from pig brains according to the published methods; from tissue; host or cells: pig brain
Procedure: Tubulin is purified from pig brains according to the published methods (Shelanski et al., 1973, Proc. Natl, Acad. Sci. USA, 70, 765-768. Weingarten et al., 1975, Proc. Natl, Acad. Sci. USA, 72, 1858-1862). Briefly, the brains are ground and centrifuged in an extraction buffer. The tubulin, contained in the extract supernatant, is subjected to two successive cycles of polymerization at 37° C. and depolymerization at 4° C., before being separated from the MAPs (Microtubule Associated Proteins) by chromatography on a phosphocellulose P11 column (Whatman). The tubulin thus isolated is more than 95% pure. It is stored in a buffer known as RB/2 30% glycerol, the composition of which is MES-NaOH [2-(N-morpholino)ethanesulfonic acid] 50 mM, pH 6.8; MgCl2 0.25 mM; EGTA 0.5 mM; 30% glycerol (v/v), GTP (guanosine 5′-triphosphate) 0.2 mM.
The polymerization of the tubulin into microtubules is monitored by turbidimetry as follows; the tubulin is adjusted to a concentration of 10 μM (1 mg/ml) in the RB/2 30% glycerol buffer, to which is added 1 mM GTP and 6 mM MgCl2. The polymerization is initiated by increasing the temperature from 6° C. to 37° C. in a cuvette with a 1 cm optical pathlength, placed in a Uvikon 931 spectrophotometer (Kontron) equipped with a thermostatically-regulated cuvette holder. The increase in the turbidity of the solution is monitored at 350 nm.
The products are dissolved at 10 mM in DMSO and added at variable concentrations (0.5 to 10 μM) to the tubulin solution before polymerization. The IC50 value is defined as the concentration of product which inhibits 50% of the rate of polymerization. A product whose IC50 value is less than or equal to 3 μM is considered as very active.

HDMEC cells = test: Detachment effect on HDMEC endothelial cells; assay type: cell-based, Human; conditions: treatment for two hours
Source text: A test to determine the detachment of endothelial cells was established in order to select the products on the basis of their “in vitro” activity. This test for determining the endothelial cell detachment is characterized in that the endothelial cells, inoculated in plates which are coated at the bottom with a binder, e.g., chosen from gelatin, fibronectin or vitronectin, after culturing, are supplemented with a medium containing the test compound, and the cells are then labeled with a fluorescent substance, the cells which become detached are removed by washing and the fluorescence of the remaining cells is counted in a fluorimeter.
This test consists in measuring the detachment of endothelial cells cultured on substrates based on a binder, e.g., chosen from fibronectin, vitronectin and gelatin. One day after inoculating the cells in plates containing 96 wells, for example, the culture medium is replaced with a medium containing the test compound in the absence of serum. The same preparation is prepared six times at three different concentrations ([…]) and the control without addition of antivascular product is prepared six times. After treatment for two hours with the test substance, the cells are labeled with calcein-AM (1.6 μg/ml) in a culture medium supplemented with 0.1% BSA. The cells which become detached are removed by washing with the culture medium containing 0.1% bovine serum albumin; 100 μl of medium are added to each well. The fluorescence of the remaining cells is counted in a fluorimeter. The data obtained are expressed relative to the control (untreated cells).
(§1) The assessment of the detachment of the endothelial cells in vitro is determined in the following way. HDMEC cells (Human Dermal Microvascular Endothelial Cells, Promocell, c-122102) are cultured in an ECGM-MV medium containing 5% fetal calf serum, growth factors (EGF 10 ng/ml, hydrocortisone 1 μg/ml, 0.4% growth supplement with heparin) and antibiotics (amphotericin 50 ng/ml, gentamicin 50 μg/ml). For the detachment test, the HDMECs are inoculated at a rate of 5 000 cells in clear-bottomed 96-well plates (Costar) precoated with fibronectin (10 μg/ml) or vitronectin (1 μg/ml) or gelatin. Twenty-four hours later, the culture medium is replaced with 0.1% BSA ECGM-MV medium containing the indicated products. The test concentrations are 0.1-0.3 and 1 μM for each product. After treatment for two hours, the cells are labeled for 1 hour with calcein (1.6 μg/ml, Molecular Probes) in 0.1% BSA ECGM-MV medium. The detached cells are then removed by washing with 0.1% BSA ECGM-MV medium; 100 μl of medium are added to each well. The fluorescence of the cells which remain attached to the substratum of the well is counted using a fluorimeter, Spectrafluor Plus (Tecan, excitation at 485 nm, and emission at 535 nm). The data are the average of six different samples and are expressed as a percentage of the control (untreated cells).
A cell detachment effect of greater than or equal to 15% is considered as significant.
as §1, with “(amphotericine” for “(amphotericin”, “The detached cells are then removed by washing with 0.1% BSA ECGM-MV medium; 100 μl of medium are added to each well. The fluorescence of the cells which remain attached to the substratum of the well is counted using a fluorimeter, Spectrafluor Plus (Tecan, excitation at 485 nm, and emission at 535 nm). The data are the average of six different samples and are expressed as a percentage of the control (untreated cells).” left out

HeLa cells = test: Inhibition of proliferation of HeLa cells ([14C]-thymidine incorporation); assay type: cell-based; conditions: Homo sapiens, incubation for 48 hours, read-out: Inhibition of cell proliferation IC50 HeLa
Procedure: The proliferation of HeLa cells is assessed by measuring the incorporation of [^14C]-thymidine in the following way. The HeLa cells (epithelial tumor cells of human origin) are cultured in a DMEM medium (Gibco) which contains 10% fetal calf serum and antibiotics (1% penicillin, 1% streptomycin). To carry out the proliferation test, the cells are inoculated into 96-well cytostar microplates (Amersham), at a rate of 5 000 cells per well. [^14C]-thymidine (0.1 μCi/well) and the products to be assessed are then added. Variable concentrations of products up to 10 μM are used; the DMSO (solvent used to dissolve the products) should not exceed 0.5% in the medium. After incubation for 48 hours at 37° C., the radioactivity incorporated into the cells is measured by counting the plate in a TRI-LUX counter (Wallac). The IC50 value is defined as the concentration of product which reduces the radioactivity by 50% relative to an untreated control. A product whose IC50 value is less than 1 μM is considered as cytotoxic.

T1 sequence (P02550 whole entry): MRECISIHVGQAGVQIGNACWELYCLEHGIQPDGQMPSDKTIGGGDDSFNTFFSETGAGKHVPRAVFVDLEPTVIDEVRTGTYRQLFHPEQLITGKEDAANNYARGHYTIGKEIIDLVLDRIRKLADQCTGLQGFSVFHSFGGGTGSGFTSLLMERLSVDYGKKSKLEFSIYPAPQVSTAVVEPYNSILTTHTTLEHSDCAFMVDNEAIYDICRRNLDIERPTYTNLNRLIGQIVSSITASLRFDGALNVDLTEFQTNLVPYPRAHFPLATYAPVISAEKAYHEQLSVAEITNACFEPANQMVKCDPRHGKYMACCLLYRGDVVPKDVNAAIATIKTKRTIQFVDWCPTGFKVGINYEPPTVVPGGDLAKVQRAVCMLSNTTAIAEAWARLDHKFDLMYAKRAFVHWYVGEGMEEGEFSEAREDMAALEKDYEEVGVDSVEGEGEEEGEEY
T1 sequence (P02554 whole entry): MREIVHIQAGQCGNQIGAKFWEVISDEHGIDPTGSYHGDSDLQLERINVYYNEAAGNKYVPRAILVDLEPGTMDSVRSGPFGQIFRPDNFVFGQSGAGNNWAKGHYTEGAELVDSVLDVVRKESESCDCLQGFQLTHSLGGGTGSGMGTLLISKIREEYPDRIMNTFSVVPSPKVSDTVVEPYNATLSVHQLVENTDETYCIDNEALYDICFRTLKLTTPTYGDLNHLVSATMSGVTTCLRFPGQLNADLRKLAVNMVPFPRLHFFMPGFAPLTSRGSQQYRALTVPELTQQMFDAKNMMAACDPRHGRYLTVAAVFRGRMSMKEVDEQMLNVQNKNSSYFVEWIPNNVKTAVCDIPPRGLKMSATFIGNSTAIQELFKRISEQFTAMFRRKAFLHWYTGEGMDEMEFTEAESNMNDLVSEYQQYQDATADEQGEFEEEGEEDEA

Row | SMILES | IC50 (HDMEC) | IC50 (Tubulin) | Percentage of detachment of HDMEC cells induced with the compound at a concentration of 0.1 μM (HDMEC cells) | Percentage of detachment of HDMEC cells induced with the compound at a concentration of 0.3 μM (HDMEC cells) | Percentage of detachment of HDMEC cells induced with the compound at a concentration of 1 μM (HDMEC cells) | IC50 (HeLa cells)
1 | COc1ccc(/C=C(\C)C(=O)c2cc(OC)c(OC)c(OC)c2)cc1NC(=O)[C@@H]1CCCN1C [Example 12, 1-Methylpyrrolidine-2-carboxylic acid {2-methoxy-5-[2-methyl-3-oxo-3-(3,4,5-trimethoxyphenyl)propenyl]phenyl}amide hydrochloride] | 320 nM | – | – | – | – | –
2 | COc1cc(C(=N\O)/C(C)=C/c2ccc3c(ccn3C)c2)cc(OC)c1OC [Example 8, E-2-Methyl-3-(1-methyl-1-H-indol-5-yl)-1-(3,4,5-trimethoxyphenyl)propenone Z-oxime] | – | 800 nM | – | – | – | –
3 | COc1ccc(/C=C(\Br)C(=O)c2cc(OC)c(OC)c(OC)c2)cc1N [Example 4, E-3-(3-Amino-4-methoxyphenyl)-2-bromo-1-(3,4,5-trimethoxyphenyl)propenone] | – | 600 nM | – | – | – | –
4 | COc1cc(C(=NO)/C(C)=C/c2ccc3c(ccn3C)c2)cc(OC)c1OC (mixture of isomers) [Example 7, E-2-Methyl-3-(1-methyl-1-H-indol-5-yl)-1-(3,4,5-trimethoxyphenyl)propenoneoxime] | 300 to 500 nM | 2000 nM | – | – | – | –
5 | COc1ccc(/C=C(\C)C(=O)c2cc(OC)c(OC)c(OC)c2)cc1N [Example 1, E-3-(3-Amino-4-methoxyphenyl)-2-methyl-1-(3,4,5-trimethoxyphenyl)propenone] | 2.5 to 3.2 nM | 300 nM | 21-36% | 18-38% | 37-42% | 3.6 to 4.3 nM
6 | COc1cc(C(=O)/C(C)=C/c2ccc3c(ccn3CCN(C)C)c2)cc(OC)c1OC [Example 20, E-2-Methyl-3-[1-(2-dimethylaminoethyl)-1-H-indol-5-yl]-1-(3,4,5-trimethoxyphenyl)propenone hydrochloride] | – | 2000 nM | – | – | – | –
7 | COc1cc(C(=O)/C(C)=C/c2ccc3c(ccn3C)c2)cc2c1OCO2 [Example 16, E-2-Methyl-3-(1-methyl-1-H-indol-5-yl)-1-(3-methoxy-4,5-methylenedioxyphenyl)propenone] | – | 500 nM | – | – | – | –
8 | COc1ccc(OC)c(C(=O)/C(C)=C/c2ccc(OC)c(N)c2)c1.Cl [Example 3, E-3-(3-Amino-4-methoxyphenyl)-2-methyl-1-(2,5-dimethoxyphenyl)propenone hydrochloride] | < 19 nM | 500 nM | 31% | 37% | 34% | < 19 nM
9 | COc1cc(/C=C(\C)C(=O)c2cc(OC)c(OC)c(OC)c2)ccc1N [Example 2, E-3-(4-Amino-3-methoxyphenyl)-2-methyl-1-(3,4,5-trimethoxyphenyl)propenone] | 1.9 to 4 nM | 2500 nM | 16-21% | 17-32% | 31-49% | 39 to 104 nM
10 | COc1cc(C(=O)/C(C)=C/c2ccc3c(ccn3CO)c2)cc(OC)c1OC [Example 21, E-2-Methyl-3-(1-hydroxymethyl-1-H-indol-5-yl)-1-(3,4,5-trimethoxyphenyl)propenone] | – | 500 nM | – | – | – | –
11 | COc1cc(C(=O)/C(C)=C/c2ccc3[nH]ccc3c2)cc(OC)c1OC [Example 19, E-2-Methyl-3-(1-H-indol-5-yl)-1-(3,4,5-trimethoxyphenyl)propenone] | – | 800 nM | – | – | – | –
12 | COc1cc(C(=N/O)/C(C)=C/c2ccc3c(ccn3C)c2)cc(OC)c1OC [Example 9, E-2-Methyl-3-(1-methyl-1-H-indol-5-yl)-1-(3,4,5-trimethoxyphenyl)propenone E-oxime] | – | 3500 nM | – | – | – | –
13 | COc1ccc(/C=C(\C)C(=O)c2cc(OC)c(OC)c(OC)c2)cc1NC(=O)[C@@H](N)CCCNC(=N)N[N+](=O)[O-] [Example 11, 2-Amino-5-[3-(1-nitroguanidino)]-pentanoic acid {2-methoxy-5-[2-methyl-3-oxo-3-(3,4,5-trimethoxy-phenyl)propenyl]phenyl}amide hydrochloride] | 400 nM | – | – | – | – | –
14 | COc1ccc(/C=C(\C)C(=O)c2cc(OC)c(OC)c(OC)c2)cc1NC(=O)[C@@H](N)C(C)C [Example 15, (S)-2-Amino-3-methylbutanoic acid {2-methoxy-5-[2-methyl-3-oxo-3-(3,4,5-trimethoxy-phenyl)propenyl]phenyl}amide hydrochloride] | 30 to 60 nM | 9000 nM | – | – | – | –
